Columns and labels:
[1] = Drug uptake in C57BL/6 mouse lung at 40 mg/kg, po administered via gavage co-administered with paclitaxel at 10 mg/kg, ip by LC-MS/MS analysis; format: ADME, organism-based; conditions: in vivo
[2] = system: A549; test: Induction of apoptosis in human A549 cells assessed as late apoptotic cells at 4 uM after 24 hrs by Annexin V/propidium iodide staining-based flow cytometric analysis (reference value: 1.6%); format: functional
[3] = Ratio of drug uptake in C57BL/6 mouse kidney at 40 mg/kg, po administered via gavage co-administered with paclitaxel at 10 mg/kg, ip by LC-MS/MS analysis to drug uptake in C57BL/6 mouse kidney at 40 mg/kg, po administered via gavage by LC-MS/MS analysis; format: ADME, organism-based; conditions: in vivo
[4] = molecular target: T1, Protein deacetylase HDAC6 (Homo sapiens, UniProt Q9UBN7); test: Competitive inhibition of human full-length recombinant HDAC6 expressed in baculovirus infected Sf9 insect cells using Boc-Lys (Ac)-AMC as substrate preincubated for 10 mins followed by substrate addition and measured after 30 mins by fluorescence assay
T1 sequence (Q9UBN7 whole entry): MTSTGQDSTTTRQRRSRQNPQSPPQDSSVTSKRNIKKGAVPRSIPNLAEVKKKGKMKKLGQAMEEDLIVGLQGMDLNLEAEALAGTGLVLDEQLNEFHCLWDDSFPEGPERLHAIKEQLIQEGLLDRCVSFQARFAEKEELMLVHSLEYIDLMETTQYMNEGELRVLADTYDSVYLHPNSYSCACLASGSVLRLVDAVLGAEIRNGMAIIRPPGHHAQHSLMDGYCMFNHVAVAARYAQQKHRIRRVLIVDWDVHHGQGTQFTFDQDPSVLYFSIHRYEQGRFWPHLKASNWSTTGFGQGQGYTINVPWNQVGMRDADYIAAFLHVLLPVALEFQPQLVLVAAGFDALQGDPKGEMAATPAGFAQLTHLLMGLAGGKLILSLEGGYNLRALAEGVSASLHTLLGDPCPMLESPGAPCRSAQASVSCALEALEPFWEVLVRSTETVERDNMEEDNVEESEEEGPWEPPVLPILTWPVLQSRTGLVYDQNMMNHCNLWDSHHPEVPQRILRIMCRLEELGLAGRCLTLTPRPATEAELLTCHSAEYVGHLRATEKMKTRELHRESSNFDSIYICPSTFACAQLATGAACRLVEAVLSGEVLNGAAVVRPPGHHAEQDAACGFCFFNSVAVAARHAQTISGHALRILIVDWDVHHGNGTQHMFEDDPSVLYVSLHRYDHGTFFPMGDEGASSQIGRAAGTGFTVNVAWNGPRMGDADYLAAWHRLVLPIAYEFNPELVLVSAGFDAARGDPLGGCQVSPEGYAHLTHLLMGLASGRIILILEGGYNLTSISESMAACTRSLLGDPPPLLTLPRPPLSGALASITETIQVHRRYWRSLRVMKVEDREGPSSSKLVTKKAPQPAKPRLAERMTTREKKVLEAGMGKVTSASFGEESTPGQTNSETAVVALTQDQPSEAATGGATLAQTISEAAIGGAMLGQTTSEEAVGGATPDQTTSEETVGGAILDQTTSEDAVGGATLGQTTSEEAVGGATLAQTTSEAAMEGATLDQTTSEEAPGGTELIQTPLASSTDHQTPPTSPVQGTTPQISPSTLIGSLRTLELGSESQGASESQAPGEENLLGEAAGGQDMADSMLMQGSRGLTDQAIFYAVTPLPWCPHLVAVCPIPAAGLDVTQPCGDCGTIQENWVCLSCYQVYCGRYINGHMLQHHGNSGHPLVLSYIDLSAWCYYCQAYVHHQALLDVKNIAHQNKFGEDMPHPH

[5] = Drug uptake in C57BL/6 mouse liver at 40 mg/kg, po administered via gavage by LC-MS/MS analysis; format: ADME, organism-based; conditions: in vivo
[6] = molecular target: T1, Protein deacetylase HDAC6; test: Competitive inhibition of human HDAC6 CD2 expressed in Escherichia coli BL21 (RIL) using Boc-Lys (Ac)-AMC as substrate preincubated for 10 mins followed by substrate addition and measured after 30 mins by fluorescence assay
[7] = Drug uptake in C57BL/6 mouse plasma at 40 mg/kg, po administered via gavage by LC-MS/MS analysis; format: ADME, organism-based; conditions: in vivo
[8] = system: Lewis lung carcinoma cell line; test: Potentiation of paclitaxel-induced cytotoxicity in mouse LL/2 cells assessed as combination index up to 10 uM after 72 hrs by Chou-Talalay method; format: functional
[9] = Ratio of drug uptake in C57BL/6 mouse plasma at 40 mg/kg, po administered via gavage co-administered with paclitaxel at 10 mg/kg, ip by LC-MS/MS analysis to drug uptake in C57BL/6 mouse plasma at 40 mg/kg, po administered via gavage by LC-MS/MS analysis; format: ADME, organism-based; conditions: in vivo
[10] = Ratio of compound AUC (0 to 24 hrs) to ACY-1215 AUC (0 to 24 hrs) in C57BL/6 mouse kidney at 40 mg/kg, po administered via gavage by LC-MS/MS analysis; format: ADME, organism-based; conditions: in vivo
[11] = Drug uptake in C57BL/6 mouse lung at 40 mg/kg, po administered via gavage by LC-MS/MS analysis; format: ADME, organism-based; conditions: in vivo
[12] = system: Lewis lung carcinoma cell line; test: Induction of apoptosis in mouse LL/2 cells assessed as early apoptotic cells at 4 uM after 24 hrs in presence of paclitaxel by Annexin V/propidium iodide staining-based flow cytometric analysis (reference value: 1.8%); format: functional
[13] = system: Lewis lung carcinoma cell line; test: Antitumor activity against mouse LL/2 cells implanted in C57BL/6 mouse assessed as tumor growth inhibition at 40 to 80 mg/kg, po qd administered for 21 consecutive days relative to control; format: functional
[14] = system: A549; test: Induction of apoptosis in human A549 cells assessed as late apoptotic cells at 4 uM after 24 hrs in presence of paclitaxel by Annexin V/propidium iodide staining-based flow cytometric analysis (reference value: 1.6%); format: functional
[15] = Drug uptake in C57BL/6 mouse liver at 40 mg/kg, po administered via gavage co-administered with paclitaxel at 10 mg/kg, ip by LC-MS/MS analysis; format: ADME, organism-based; conditions: in vivo
[16] = system: Lewis lung carcinoma cell line; test: Induction of apoptosis in mouse LL/2 cells assessed as late apoptotic cells at 4 uM after 24 hrs by Annexin V/propidium iodide staining-based flow cytometric analysis (reference value: 8.7%); format: functional
[17] = Drug uptake in C57BL/6 mouse plasma at 40 mg/kg, po administered via gavage co-administered with paclitaxel at 10 mg/kg, ip by LC-MS/MS analysis; format: ADME, organism-based; conditions: in vivo
[18] = Ratio of compound AUC (0 to 24 hrs) to ACY-1215 AUC (0 to 24 hrs) in C57BL/6 mouse plasma at 40 mg/kg, po administered via gavage by LC-MS/MS analysis; format: ADME, organism-based; conditions: in vivo
[19] = AUC (0 to 24 hrs) in C57BL/6 mouse lung at 40 mg/kg, po administered via gavage by LC-MS/MS analysis; format: ADME, organism-based; set-up: time < 24 hr, dose 40 mg/kg, route oral; conditions: in vivo
[20] = Ratio of drug uptake in C57BL/6 mouse liver at 40 mg/kg, po administered via gavage co-administered with paclitaxel at 10 mg/kg, ip by LC-MS/MS analysis to drug uptake in C57BL/6 mouse liver at 40 mg/kg, po administered via gavage by LC-MS/MS analysis; format: ADME, organism-based; conditions: in vivo

Drug uptake [1]: 331 ng/g
Ratio [3]: 3
Ki [4]: 1.6 nM
Drug uptake [5]: 782 ng/g
Ki [6]: 3.7 nM
Cp [7]: 13 ng/mL
Ratio [9]: 12.3
Ratio AUC [10]: 0.8
Drug uptake [11]: 212 ng/g
Drug uptake [15]: 719 ng/g
Cp [17]: 160 ng/mL
Ratio AUC [18]: 0.2
AUC [19]: 1335 ng·h/g
Ratio [20]: 0.9
Compound: O=C(NO)c1ccc(Cn2c(=O)n(CCc3ccccc3)c(=O)c3ccccc32)cc1
Activity [2]: 0.7%
CI [8]: <1
Activity [12]: 8.8%
TGI [13]: 63.4%
Activity [14]: 1.3%
Activity [16]: 10.4%
